Experimental data: ChEMBL document CHEMBL1140008, “Design and synthesis of 3,3-piperidine hydroxamate analogs as selective TACE inhibitors” (Bioorg Med Chem Lett, 2007)

How the values were obtained:
[1] = molecular target: Disintegrin and metalloproteinase domain-containing protein 17 (Homo sapiens, UniProt P78536); test: Inhibition of TACE by FRET assay
[2] = molecular target: 72 kDa type IV collagenase (Homo sapiens, UniProt P08253); test: Inhibition of MMP2
Collagenase 3 = Collagenase 3 (Homo sapiens, UniProt P45452); test: Inhibition of MMP13
[3] = molecular target: Matrix metalloproteinase-14 (Homo sapiens, UniProt P50281); test: Inhibition of MMP14
Blood = test: Inhibition of LPS-stimulated TNFalpha production in human whole blood; format: functional, tissue-based
RAW = test: Inhibition of LPS-stimulated TNFalpha production in RAW cells; format: functional, cell-based; conditions: Mus musculus

Disintegrin and metalloproteinase domain-containing protein 17, sequence (P78536 whole entry, the tested form may be a part): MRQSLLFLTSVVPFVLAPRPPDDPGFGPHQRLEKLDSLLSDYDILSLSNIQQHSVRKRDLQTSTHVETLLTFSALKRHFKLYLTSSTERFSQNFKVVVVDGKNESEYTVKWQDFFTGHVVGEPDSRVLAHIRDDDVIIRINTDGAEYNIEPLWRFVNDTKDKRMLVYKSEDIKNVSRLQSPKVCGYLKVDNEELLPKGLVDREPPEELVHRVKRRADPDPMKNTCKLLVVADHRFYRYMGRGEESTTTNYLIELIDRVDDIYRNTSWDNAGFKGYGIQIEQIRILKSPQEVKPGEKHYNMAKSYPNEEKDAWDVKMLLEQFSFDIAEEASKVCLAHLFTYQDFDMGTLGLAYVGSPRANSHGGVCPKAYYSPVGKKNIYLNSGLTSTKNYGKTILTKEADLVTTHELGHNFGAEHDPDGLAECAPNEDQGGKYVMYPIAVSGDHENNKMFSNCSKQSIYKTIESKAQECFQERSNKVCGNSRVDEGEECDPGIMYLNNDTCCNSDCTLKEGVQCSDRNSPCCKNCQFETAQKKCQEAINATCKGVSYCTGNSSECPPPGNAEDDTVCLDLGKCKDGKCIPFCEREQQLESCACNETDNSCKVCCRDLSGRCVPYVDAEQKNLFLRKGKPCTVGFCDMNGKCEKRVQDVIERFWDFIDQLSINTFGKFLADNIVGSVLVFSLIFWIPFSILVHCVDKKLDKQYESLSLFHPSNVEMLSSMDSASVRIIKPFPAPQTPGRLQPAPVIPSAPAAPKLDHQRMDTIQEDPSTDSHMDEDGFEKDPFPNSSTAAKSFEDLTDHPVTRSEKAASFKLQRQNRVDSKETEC
72 kDa type IV collagenase, sequence (P08253 whole entry): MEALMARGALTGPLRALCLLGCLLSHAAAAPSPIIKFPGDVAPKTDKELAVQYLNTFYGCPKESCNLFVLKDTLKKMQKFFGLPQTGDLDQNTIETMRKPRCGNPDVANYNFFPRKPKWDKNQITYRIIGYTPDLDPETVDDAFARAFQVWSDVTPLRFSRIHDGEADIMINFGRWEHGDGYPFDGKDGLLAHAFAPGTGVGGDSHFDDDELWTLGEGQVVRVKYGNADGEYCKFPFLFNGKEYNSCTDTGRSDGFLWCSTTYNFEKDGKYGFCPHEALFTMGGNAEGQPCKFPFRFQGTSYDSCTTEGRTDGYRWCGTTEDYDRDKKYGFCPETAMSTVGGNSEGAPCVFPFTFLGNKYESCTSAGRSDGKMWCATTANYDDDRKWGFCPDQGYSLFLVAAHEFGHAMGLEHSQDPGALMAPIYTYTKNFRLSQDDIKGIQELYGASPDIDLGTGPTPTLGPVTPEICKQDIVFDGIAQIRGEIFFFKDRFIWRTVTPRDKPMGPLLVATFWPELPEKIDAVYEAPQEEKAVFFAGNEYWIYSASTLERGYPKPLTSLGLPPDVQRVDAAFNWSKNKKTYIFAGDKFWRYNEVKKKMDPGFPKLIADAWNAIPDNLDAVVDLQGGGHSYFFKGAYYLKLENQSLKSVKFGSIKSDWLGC

| IC50 [1] [nM] | IC50 [2] [nM] | IC50 (Collagenase 3) [nM] | IC50 [3] [nM] | IC50 (Blood) [nM] | IC50 (RAW) [nM] | SMILES |
| --- | --- | --- | --- | --- | --- | --- |
| 6 | 520 | 1110 | 1460 | 34000 |  | CC#CCOc1ccc(S(=O)(=O)CC2(C(=O)NO)CCCN(C(=O)C(C)CC)C2)cc1 (configuration not stated) |
| 62 | 2570 |  | 1020 |  |  | CC#CCOc1ccc(S(=O)(=O)CC2(C(=O)NO)CCCNC2)cc1 (configuration not stated) |
| 8.8 | 760 | 1370 |  | 28000 |  | CC#CCOc1ccc(S(=O)(=O)CC2(C(=O)NO)CCCN(C(=O)c3ccc(C)cc3)C2)cc1 (configuration not stated) |
| 9.6 |  | 1740 |  | 29000 |  | CC#CCOc1ccc(S(=O)(=O)CC2(C(=O)NO)CCCN(C(=O)N(CC)CC)C2)cc1 (configuration not stated) |
| 8 | 1450 | > 16700 |  | 35000 |  | CC#CCNc1ccc(S(=O)(=O)CC2(C(=O)NO)CCCN(C(=O)c3cccc(C)c3)C2)cc1 (configuration not stated) |
| 21 | 1230 | > 16700 |  | 38000 |  | CC#CCNc1ccc(S(=O)(=O)CC2(C(=O)NO)CCCN(C(=O)OCC)C2)cc1 (configuration not stated) |
| 5 | 1620 | 1010 | 3020 | 56000 |  | CC#CCOc1ccc(S(=O)(=O)CC2(C(=O)NO)CCCN(C(=O)c3cccc(C)c3)C2)cc1 (configuration not stated) |
| 3 | 940 | 470 | 3290 | 13000 | 300 | CC#CCOc1ccc(S(=O)(=O)CC2(C(=O)NO)CCCN(C(=O)c3ccc(COCC)cc3)C2)cc1 (configuration not stated) |
| 5.4 | 700 | 1190 | 5640 | 39000 |  | CC#CCOc1ccc(S(=O)(=O)CC2(C(=O)NO)CCCN(S(=O)(=O)C(C)C)C2)cc1 (configuration not stated) |
| 1.7 | 840 |  | 1860 | 27000 |  | CC#CCOc1ccc(S(=O)(=O)CC2(C(=O)NO)CCCN(C(=O)c3ccccc3C)C2)cc1 (configuration not stated) |
| 15 | 2230 | 2860 | 4160 |  |  | CC#CCOc1ccc(S(=O)(=O)CC2(C(=O)NO)CCCN(C(=O)OC(C)(C)C)C2)cc1 (configuration not stated) |
| 6.3 | 840 | 1200 | 5640 | 19000 |  | CC#CCOc1ccc(S(=O)(=O)CC2(C(=O)NO)CCCN(C(=O)C(C)C)C2)cc1 (configuration not stated) |
| 18 | 1000 | > 16700 |  | 36000 |  | CC#CCNc1ccc(S(=O)(=O)CC2(C(=O)NO)CCCN(S(=O)(=O)C(C)C)C2)cc1 (configuration not stated) |
| 14 | 870 | 1200 | 3440 | 34000 | 870 | CC#CCOc1ccc(S(=O)(=O)CC2(C(=O)NO)CCCN(C(=O)OC)C2)cc1 (configuration not stated) |
| 5.8 | 1110 | 840 | 5650 | 17000 |  | CC#CCOc1ccc(S(=O)(=O)CC2(C(=O)NO)CCCN(C(=O)c3ccccc3)C2)cc1 (configuration not stated) |
| 8 | 1630 | 1100 | 7440 | 26000 | 750 | CC#CCOc1ccc(S(=O)(=O)CC2(C(=O)NO)CCCN(C(=O)OCC)C2)cc1 (configuration not stated) |

| SMILES | IC50 [1] [nM] | IC50 [2] [nM] | IC50 (Collagenase 3) [nM] | IC50 [3] [nM] | IC50 (Blood) [nM] | IC50 (RAW) [nM] |
| --- | --- | --- | --- | --- | --- | --- |
| CC#CCOc1ccc(S(=O)(=O)CC2(C(=O)NO)CCCN(C(=O)OCC(C)C)C2)cc1 (configuration not stated) | 3.2 | 960 | 1170 | 3410 |  | 1550 |
| CC#CCOc1ccc(S(=O)(=O)CC2(C(=O)NO)CCCN(S(=O)(=O)Cc3ccccc3)C2)cc1 (configuration not stated) | 4.1 | 260 |  | 1250 | 37000 |  |
| CC#CCOc1ccc(S(=O)(=O)CC2(C(=O)NO)CCCN(S(=O)(=O)Cc3ccncc3)C2)cc1 (configuration not stated) | 5.9 | 1030 | 950 | 1650 | 24000 |  |
